Like-named read-outs stand apart in the source and are kept apart here.
Key:
[1] = tested on: HL-60 cells with a mutated RARα gene; test: MTS cell viability assay, retinoic acid-resistant HL60R cells; assay type: cell-based
Description: These cells are resistant to retinoic acid-induced expression of the CD38 antigen due to a point mutation in the retinoic acid receptor alpha (RARα) gene. The cell line was cultured with increasing concentrations of immunotoxin (in ng/ml) under different conditions.
HL-60 cells with a mutated RARα gene that renders the cells resistant to the effects of retinoic acid were treated with immunotoxin in either the presence or absence of 5 nM retinoic acid.

CD38 = CD38 expression in tumor cells by flow cytometry after RA treatment; assay type: cell-based; details: 5 nM RA
Description: Table I lists the potential targets for anti-CD38 bound toxin treatment A number of different lymphoid tumor cell lines were treated with 5 nM all-trans-retinoic acid (RA). Afterwards, the expression of CD38 in untreated versus treated cell was measured by flow cytometry. […] The increase in CD38 expression ranges from 2.5 to 20 fold. Thus, retinoic acid can be used in all of these tumor types to increase the vulnerability of the tumor cells to immunotoxin treatment.

[2] = tested on: myeloid and lymphoid leukemia cells; details: retinoic acid 10^−13 M; cited from earlier work
HL-60 cells = test: MTS cell viability assay, HL-60 cells; assay type: cell-based; details: 3 days, presence or absence of 5 nM retinoic acid
Description: HL-60 cells were incubated with either immunotoxin alone or in the presence of 5 nM retinoic acid (RA). Increasing concentrations of unconjugated IB4 monoclonal antibody were added to the cells incubated with immunotoxin and retinoic acid. After three days, the cells were assayed for viability with the MTS assay. Briefly, 6.5 mg/ml MTS solution [(3-(4,5-dimethylthiazol-2-yl)-5-(3-carboxymethoxyphenyl)-2-(4-sulfophenyl)-2H-tetrazolium] and 0.5 mM PMS (phenazine methosulfate) solution were mixed at a ratio of 20:1. 20 μl of the combined MTS/PMS solution was placed in each well of a 96 well plate containing samples of the cells to be tested. The plate was incubated for 1–4 hours at 37° C. in a 5% CO2 atmosphere, after which time, the amount of formazan produced by live cells from cellular reduction of MTS was measured by reading the absorbance at 490 nm. The results are shown in FIG. 2.
HL-60 cells were preincubated overnight in either the presence or absence of 5 nM all-trans-retinoic acid. The cells were washed twice and incubated in increasing concentrations of immunotoxin in either the presence or absence of IB4 unconjugated anti-CD38 MoAb. After three days, the cell were assayed for viability.
HL-60 cells were incubated for three days with increasing concentrations of either immunotoxin or gelonin in either the presence or absence of 5 nM retinoic acid. […]

| Compound | cell death (MTS) [1] | CD38 after RA treatment (CD38; AML cells) | CD38 after RA treatment (CD38; APL cells) | CD38 after RA treatment (CD38; Lymphomas) | CD38 after RA treatment (CD38; Myelomas) | induction of CD38 cell surface antigen expression [2] [fold] | cell death (MTS) ([1]; HL60R (mutated RARα), 3 days) | toxic effect (MTS cell viability) (HL-60 cells) |
| --- | --- | --- | --- | --- | --- | --- | --- | --- |
| CC1=C(/C=C/C(C)=C/C=C/C(C)=C/C(=O)O)C(C)(C)CCC1 [RA, all-trans-retinoic acid] | no appreciable cell death | 180 ± 20 | 120 ± 30 | 210 ± 10 | 180 ± 25 | 4 |  |  |
| gelonin |  |  |  |  |  |  | no appreciable cell death | no toxic effect |

Reference: patent US7223397B1, “Potentiation of anti-CD38-Immunotoxin cytotoxicity” (priority 1999, dated 2007)
